The values that follow come from paper PMC5428509, “Irreversible inhibition of BTK kinase by a novel highly selective inhibitor CHMFL-BTK-11 suppresses inflammatory response in rheumatoid arthritis model” (Scientific Reports, 2017).

What all share (assay): biochemical
Holding throughout (parameters): KinomeScan competition binding panel (DiscoveRx), percent of control at 1 uM
Details in all cases: read-out: Percent Control

The target of assay [1] is PRKD3 (Homo sapiens, UniProt O94806). The procedure, abridged: (§1)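 Selectivity profiled across 456 kinases/mutants by KinomeScan binding technology.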
Sequence of PRKD3 (O94806 whole entry): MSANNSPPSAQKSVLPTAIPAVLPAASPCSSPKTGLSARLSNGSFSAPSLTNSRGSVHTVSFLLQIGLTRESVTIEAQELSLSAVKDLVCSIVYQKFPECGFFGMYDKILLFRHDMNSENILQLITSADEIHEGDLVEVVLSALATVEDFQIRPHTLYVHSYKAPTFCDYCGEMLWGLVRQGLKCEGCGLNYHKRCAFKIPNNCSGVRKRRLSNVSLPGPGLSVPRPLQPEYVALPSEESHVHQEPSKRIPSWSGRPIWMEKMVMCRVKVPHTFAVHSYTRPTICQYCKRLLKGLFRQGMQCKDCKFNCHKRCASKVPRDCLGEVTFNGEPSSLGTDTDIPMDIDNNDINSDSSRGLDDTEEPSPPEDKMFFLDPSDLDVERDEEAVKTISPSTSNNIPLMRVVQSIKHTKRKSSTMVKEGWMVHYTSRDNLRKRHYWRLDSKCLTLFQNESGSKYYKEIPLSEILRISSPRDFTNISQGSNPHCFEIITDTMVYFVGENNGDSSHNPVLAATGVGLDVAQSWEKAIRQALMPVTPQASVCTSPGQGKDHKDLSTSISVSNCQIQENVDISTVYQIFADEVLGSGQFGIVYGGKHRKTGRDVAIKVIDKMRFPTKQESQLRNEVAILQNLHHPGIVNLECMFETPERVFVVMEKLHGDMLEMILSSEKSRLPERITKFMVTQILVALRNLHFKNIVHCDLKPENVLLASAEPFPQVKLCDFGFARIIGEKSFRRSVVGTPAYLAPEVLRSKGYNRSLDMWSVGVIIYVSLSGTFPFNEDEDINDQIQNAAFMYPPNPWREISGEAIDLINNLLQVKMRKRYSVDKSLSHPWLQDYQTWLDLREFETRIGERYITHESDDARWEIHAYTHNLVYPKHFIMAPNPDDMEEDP
For assay [2], the target named is LATS1 (Homo sapiens, UniProt O95835). In short, it runs like this:
as §1

Assay [3] concerns the target MELK (Homo sapiens, UniProt Q14680). The procedure, abridged:
as §1

Assay [4] concerns the target FLT3(ITD) (Homo sapiens, UniProt P36888, ITD). In short, it runs like this: as §1
The target in assay [5] is CHEK1 (Homo sapiens, UniProt O14757). The procedure, abridged: as §1
Assay [6] addresses T1, JAK2(JH1domain-catalytic) (Homo sapiens, UniProt O60674).
T1 construct: JH1domain-catalytic
In short, it runs like this:
as §1

The target in assay [7] is EGFR(L747-S752del, P753S) (Homo sapiens, UniProt P00533, DEL747-752/P753S). The procedure, abridged: as §1
Assay [8] has as its target T2, GCN2(Kin.Dom.2,S808G) (Homo sapiens, UniProt Q9P2K8, S808G).
T2 construct: gene EIF2AK4; Kin.Dom.2
In short, it runs like this:
as §1

The target in assay [9] is PIK3CG (Homo sapiens, UniProt P48736). In short, it runs like this:
as §1

The target in assay [10] is PKN2 (Homo sapiens, UniProt Q16513). The procedure, abridged: as §1
In assay [11] the target is T3, PCTK3 (Homo sapiens, UniProt Q07002).
T3 construct: gene CDK18
In short, it runs like this: as §1

The target in assay [12] is PLK4 (Homo sapiens, UniProt O00444). The procedure, abridged: as §1
Sequence of PLK4 (O00444 whole entry): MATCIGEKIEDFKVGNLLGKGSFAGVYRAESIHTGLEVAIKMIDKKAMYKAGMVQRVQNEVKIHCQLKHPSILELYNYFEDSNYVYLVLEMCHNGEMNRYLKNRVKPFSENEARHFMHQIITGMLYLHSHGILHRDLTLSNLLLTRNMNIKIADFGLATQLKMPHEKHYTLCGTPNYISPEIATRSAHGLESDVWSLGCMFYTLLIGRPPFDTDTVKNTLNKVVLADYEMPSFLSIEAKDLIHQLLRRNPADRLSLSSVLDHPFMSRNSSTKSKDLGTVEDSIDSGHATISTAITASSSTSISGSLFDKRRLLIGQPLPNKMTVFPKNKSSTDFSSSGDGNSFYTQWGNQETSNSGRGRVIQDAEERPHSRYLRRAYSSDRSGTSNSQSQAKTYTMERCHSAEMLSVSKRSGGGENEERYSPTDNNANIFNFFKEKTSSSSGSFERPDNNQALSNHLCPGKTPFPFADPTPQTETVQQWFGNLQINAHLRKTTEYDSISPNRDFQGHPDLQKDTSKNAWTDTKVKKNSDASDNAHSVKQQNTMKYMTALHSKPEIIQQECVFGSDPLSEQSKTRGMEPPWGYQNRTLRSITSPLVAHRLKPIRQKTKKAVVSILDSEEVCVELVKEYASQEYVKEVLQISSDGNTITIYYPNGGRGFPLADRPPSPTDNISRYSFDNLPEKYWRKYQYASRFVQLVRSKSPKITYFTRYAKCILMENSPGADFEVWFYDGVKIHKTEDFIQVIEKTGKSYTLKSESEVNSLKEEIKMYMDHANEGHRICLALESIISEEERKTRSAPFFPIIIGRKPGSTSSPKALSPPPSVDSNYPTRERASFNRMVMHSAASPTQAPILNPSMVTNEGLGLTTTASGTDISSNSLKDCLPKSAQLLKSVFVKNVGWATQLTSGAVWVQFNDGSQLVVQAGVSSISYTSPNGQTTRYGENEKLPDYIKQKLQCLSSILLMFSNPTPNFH
In assay [13] the target is KIT(V559D,T670I) (Homo sapiens, UniProt P10721, T670I/V559D). In short, it runs like this:
as §1

In assay [14] the target is PLK2 (Homo sapiens, UniProt Q9NYY3). The procedure, abridged:
as §1

Assay [15] deals with KIT-autoinhibited (Homo sapiens, UniProt P10721). The procedure, abridged:
as §1

Assay [16] deals with CSNK1G1 (Homo sapiens, UniProt Q9HCP0). In short, it runs like this: as §1
Sequence of CSNK1G1 (Q9HCP0 whole entry): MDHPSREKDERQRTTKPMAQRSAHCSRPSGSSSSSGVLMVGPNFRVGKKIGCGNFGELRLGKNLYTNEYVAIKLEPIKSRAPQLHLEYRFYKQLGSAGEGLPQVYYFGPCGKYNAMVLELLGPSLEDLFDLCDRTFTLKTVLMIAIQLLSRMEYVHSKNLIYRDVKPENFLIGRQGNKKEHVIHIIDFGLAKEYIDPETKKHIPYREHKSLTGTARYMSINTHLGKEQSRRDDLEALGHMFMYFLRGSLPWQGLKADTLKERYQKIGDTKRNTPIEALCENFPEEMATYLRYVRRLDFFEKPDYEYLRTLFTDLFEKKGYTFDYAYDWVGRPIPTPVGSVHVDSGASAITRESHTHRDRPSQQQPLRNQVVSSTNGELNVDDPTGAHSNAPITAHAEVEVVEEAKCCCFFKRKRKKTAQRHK
Assay [17] concerns the target CAMK4 (Homo sapiens, UniProt Q16566). The procedure, abridged:
as §1

For assay [18], the target named is HASPIN (Homo sapiens, UniProt Q8TF76). The procedure, abridged: as §1
Sequence of HASPIN (Q8TF76 whole entry): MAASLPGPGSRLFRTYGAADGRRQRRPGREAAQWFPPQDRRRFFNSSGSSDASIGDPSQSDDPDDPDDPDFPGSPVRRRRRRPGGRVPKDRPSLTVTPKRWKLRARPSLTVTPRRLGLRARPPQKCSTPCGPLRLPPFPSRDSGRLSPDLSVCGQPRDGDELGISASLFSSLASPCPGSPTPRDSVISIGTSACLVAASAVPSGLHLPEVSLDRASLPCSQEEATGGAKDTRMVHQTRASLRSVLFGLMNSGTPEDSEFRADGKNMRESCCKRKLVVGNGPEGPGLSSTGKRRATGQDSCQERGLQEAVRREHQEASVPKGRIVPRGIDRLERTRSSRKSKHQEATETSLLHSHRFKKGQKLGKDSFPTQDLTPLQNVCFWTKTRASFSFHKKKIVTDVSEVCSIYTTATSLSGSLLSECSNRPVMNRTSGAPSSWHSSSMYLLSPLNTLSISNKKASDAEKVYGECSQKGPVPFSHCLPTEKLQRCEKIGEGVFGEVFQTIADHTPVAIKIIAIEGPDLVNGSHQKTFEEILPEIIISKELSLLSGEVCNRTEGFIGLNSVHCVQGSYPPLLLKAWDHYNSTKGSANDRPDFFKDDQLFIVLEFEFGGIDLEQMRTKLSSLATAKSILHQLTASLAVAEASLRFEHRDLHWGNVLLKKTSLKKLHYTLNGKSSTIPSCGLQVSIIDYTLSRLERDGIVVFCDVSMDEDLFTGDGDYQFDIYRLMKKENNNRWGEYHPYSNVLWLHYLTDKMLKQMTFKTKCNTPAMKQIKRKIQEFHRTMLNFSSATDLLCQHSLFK
In assay [19] the target is T4, CDK4-cyclinD1 (Homo sapiens, UniProt P11802).
T4 construct: cyclinD1
In short, it runs like this:
as §1

For assay [20], the target named is T5, JNK2 (Homo sapiens, UniProt P45984).
T5 construct: gene MAPK9
In short, it runs like this:
as §1

Assay [21] deals with MAP3K1 (Homo sapiens, UniProt Q13233). The procedure, abridged:
as §1

Assay [22] has as its target MAP4K2 (Homo sapiens, UniProt Q12851). In short, it runs like this: as §1
Assay [23] deals with T6, ABL1(Q252H)-phosphorylated (Homo sapiens, UniProt P00519, Q252H).
T6 construct: phosphorylated
In short, it runs like this:
as §1

The target of assay [24] is FGFR2 (Homo sapiens, UniProt P21802). The procedure, abridged:
as §1

Sequence of CAMK4 (Q16566 whole entry): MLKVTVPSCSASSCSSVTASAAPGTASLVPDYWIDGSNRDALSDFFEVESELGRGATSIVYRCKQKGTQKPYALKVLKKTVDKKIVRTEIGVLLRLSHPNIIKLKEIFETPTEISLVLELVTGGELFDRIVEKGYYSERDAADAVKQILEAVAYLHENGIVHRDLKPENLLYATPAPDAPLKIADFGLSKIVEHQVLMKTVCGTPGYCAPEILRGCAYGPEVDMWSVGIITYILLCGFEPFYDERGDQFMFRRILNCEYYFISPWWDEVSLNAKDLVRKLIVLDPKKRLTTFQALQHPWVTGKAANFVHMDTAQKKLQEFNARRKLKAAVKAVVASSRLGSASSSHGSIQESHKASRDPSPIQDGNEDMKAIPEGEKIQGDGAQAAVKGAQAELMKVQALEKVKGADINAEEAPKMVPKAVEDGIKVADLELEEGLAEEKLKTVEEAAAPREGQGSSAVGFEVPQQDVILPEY
Sequence of MAP4K2 (Q12851 whole entry): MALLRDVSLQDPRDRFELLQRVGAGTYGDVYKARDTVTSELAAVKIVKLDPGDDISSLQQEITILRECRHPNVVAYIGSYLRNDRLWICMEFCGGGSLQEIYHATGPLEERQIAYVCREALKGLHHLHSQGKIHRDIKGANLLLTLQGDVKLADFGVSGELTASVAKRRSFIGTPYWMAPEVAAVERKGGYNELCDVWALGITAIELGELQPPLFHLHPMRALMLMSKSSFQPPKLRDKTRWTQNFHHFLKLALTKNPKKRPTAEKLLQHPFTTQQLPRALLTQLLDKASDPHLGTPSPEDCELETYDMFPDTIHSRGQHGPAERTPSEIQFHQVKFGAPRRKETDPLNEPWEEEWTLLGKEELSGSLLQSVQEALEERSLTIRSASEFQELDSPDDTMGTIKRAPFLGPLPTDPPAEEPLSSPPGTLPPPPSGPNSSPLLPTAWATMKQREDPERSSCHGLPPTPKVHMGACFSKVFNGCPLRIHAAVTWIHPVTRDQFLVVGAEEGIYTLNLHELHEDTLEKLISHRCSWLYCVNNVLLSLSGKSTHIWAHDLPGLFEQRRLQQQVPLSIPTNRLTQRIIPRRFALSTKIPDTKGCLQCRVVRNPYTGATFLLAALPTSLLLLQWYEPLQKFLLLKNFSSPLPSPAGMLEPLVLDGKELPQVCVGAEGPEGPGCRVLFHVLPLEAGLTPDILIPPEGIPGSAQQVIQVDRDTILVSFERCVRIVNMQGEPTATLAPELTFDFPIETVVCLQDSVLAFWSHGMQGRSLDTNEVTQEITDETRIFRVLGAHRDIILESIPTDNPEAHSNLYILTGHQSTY
Sequence of FLT3(ITD) (P36888 564-993, change not shown): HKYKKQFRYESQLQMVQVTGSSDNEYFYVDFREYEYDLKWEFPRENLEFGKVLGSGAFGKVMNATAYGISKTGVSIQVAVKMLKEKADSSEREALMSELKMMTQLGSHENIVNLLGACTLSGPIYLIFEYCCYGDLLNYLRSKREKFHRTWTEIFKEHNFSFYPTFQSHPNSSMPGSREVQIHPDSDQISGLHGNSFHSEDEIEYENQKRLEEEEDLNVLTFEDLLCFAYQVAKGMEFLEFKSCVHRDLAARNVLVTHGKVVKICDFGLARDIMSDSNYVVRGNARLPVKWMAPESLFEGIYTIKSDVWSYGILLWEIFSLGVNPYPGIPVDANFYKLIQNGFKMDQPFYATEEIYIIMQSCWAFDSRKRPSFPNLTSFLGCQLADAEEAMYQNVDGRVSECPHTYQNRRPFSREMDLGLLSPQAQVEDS

Regarding `C=CC(=O)Nc1cc(-n2c(=O)ccc3cnc4ccc(-n5cccn5)cc4c32)ccc1C` [CHMFL-BTK-11], the remaining binding at 1 µM in assay [1] was 100%; in [2], 99%; in assay [3], 73%; in assay [4], 89%; in [5], 100%; in assay [6] it was 78%. Besides, the remaining binding at 1 µM is 86% in [7]; 100% in [8]; 73% in [9]; 100% in assay [10]; 90% in assay [11]; 56% in [12]. The remaining binding at 1 µM in assay [13] turned out to be 99%; in assay [14] it was 91%; in [15] it was 83%; in assay [16] it was 100%; in assay [17], 91%; in assay [18] it was 59%. Moreover, the remaining binding at 1 µM worked out at 97% in [19]; 100% in [20]; 100% in assay [21]; 98% in assay [22]; 100% in assay [23]; 88% in [24].
